Consider five compounds from ChEMBL document CHEMBL1146032, “Synthesis and biological activity of nociceptin/orphanin FQ(1-13)NH2 analogues modified in 9 and/or 13 position” (Bioorg Med Chem Lett, 2006).

“And” between values parts separate entries of the source, which are not always exact repeats. Identical values can stand only once. Where a SMILES comes first, the peptide text is derived from it. [ ]: non-standard residue; d: D form. Dap = NC[C@H](N)C(=O)O

Holding throughout (format): functional, tissue-based
Test [1] addresses Nociceptin receptor (Rattus norvegicus) (UniProt P35370). Description: (§1) Activity against LFES-evoked contraction of Wistar rat vas deferens in presence of naloxone.
For test [2], the target named is T1, Nociceptin receptor (Rattus norvegicus, UniProt P35370). The test is described as §1.
For test [3], the target named is Nociceptin receptor (Rattus norvegicus) (UniProt P35370). Description: (§2) Activity against LFES-evoked contraction of Wistar rat vas deferens.
The target in test [4] is T1, Nociceptin receptor. The description is as §2.
Test [5] concerns the target Nociceptin receptor (Rattus norvegicus) (UniProt P35370). Description: Activity against LFES-evoked contraction of Wistar rat vas deferens relative to N/OFQ(1-13)NH2.
The target is the same in test [6]. The experiment in a line: Activity against LFES-evoked contraction of Wistar rat vas deferens relative to N/OFQ(1-13)NH2 in presence of naloxone.

T1 sequence (P35370 whole entry): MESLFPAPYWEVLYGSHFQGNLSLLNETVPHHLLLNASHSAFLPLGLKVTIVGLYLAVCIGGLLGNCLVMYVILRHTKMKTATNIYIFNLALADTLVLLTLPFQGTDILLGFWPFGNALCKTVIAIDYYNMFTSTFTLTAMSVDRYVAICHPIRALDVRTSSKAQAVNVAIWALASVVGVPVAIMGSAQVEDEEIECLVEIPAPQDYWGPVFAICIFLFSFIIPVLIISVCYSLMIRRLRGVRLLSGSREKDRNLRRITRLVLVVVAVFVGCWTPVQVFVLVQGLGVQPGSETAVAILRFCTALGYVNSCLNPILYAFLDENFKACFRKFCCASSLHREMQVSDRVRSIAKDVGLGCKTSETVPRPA
Nociceptin receptor (Rattus norvegicus), sequence (P35370 whole entry): as above

For `C[C@H](NC(=O)CNC(=O)[C@@H](NC(=O)[C@H](Cc1ccccc1)NC(=O)CNC(=O)CNC(=O)[C@@H](N)Cc1ccccc1)[C@@H](C)O)C(=O)N[C@@H](CCCN=C(N)N)C(=O)N[C@@H](CCCN)C(=O)N[C@@H](CO)C(=O)N[C@@H](C)C(=O)N[C@@H](CCCN=C(N)N)C(=O)N[C@@H](CCCCN)C(N)=O`, the Emax in test [1] is -77%; in test [3], -71%. The figures for the EC50 at Nociceptin receptor [2] and at Nociceptin receptor [4] were 0.214 µM and 0.234 µM, respectively. For the same compound, the Activity was 2.45 in test [5] and 1.56 in test [6].

Take `C[C@H](NC(=O)CNC(=O)[C@@H](NC(=O)[C@H](Cc1ccccc1)NC(=O)CNC(=O)CNC(=O)[C@@H](N)Cc1ccccc1)[C@@H](C)O)C(=O)N[C@@H](CCCN=C(N)N)C(=O)N[C@@H](CCCCN)C(=O)N[C@@H](CO)C(=O)N[C@@H](C)C(=O)N[C@@H](CCCN=C(N)N)C(=O)N[C@@H](CCCN)C(N)=O`: the Emax in test [1] is -33% and -49%; in test [3] it was -60% and -57%. Moreover, the EC50 on Nociceptin receptor [2] was 9.33 µM and 11 µM; at Nociceptin receptor [4], 6.17 µM and 11.2 µM. For the same compound, the Activity is 0.09 and 0.05 in test [5]; 0.04 in test [6].

As to `C[C@H](NC(=O)CNC(=O)[C@@H](NC(=O)[C@H](Cc1ccccc1)NC(=O)CNC(=O)CNC(=O)[C@@H](N)Cc1ccccc1)[C@@H](C)O)C(=O)N[C@@H](CCCN=C(N)N)C(=O)N[C@@H](CN)C(=O)N[C@@H](CO)C(=O)N[C@@H](C)C(=O)N[C@@H](CCCN=C(N)N)C(=O)N[C@@H](CN)C(N)=O` (H-FGGFTGAR[Dap]SAR[Dap]-NH2), the Emax was -46% in test [1] and -54% in test [3]. In addition, the EC50 on Nociceptin receptor [2] was 6.17 µM; on Nociceptin receptor [4], 2.34 µM. Also, the values for the Activity in test [5] and in test [6] were 0.25 and 0.06, respectively.

As for `C[C@H](NC(=O)CNC(=O)[C@@H](NC(=O)[C@H](Cc1ccccc1)NC(=O)CNC(=O)CNC(=O)[C@@H](N)Cc1ccccc1)[C@@H](C)O)C(=O)N[C@@H](CCCN=C(N)N)C(=O)N[C@@H](CCCN)C(=O)N[C@@H](CO)C(=O)N[C@@H](C)C(=O)N[C@@H](CCCN=C(N)N)C(=O)N[C@@H](CCCN)C(N)=O`, the Emax in test [1] is -70%; in test [3], -56%. In addition, the EC50 at Nociceptin receptor [2] was 0.977 µM; on Nociceptin receptor [4] it was 0.407 µM. Further, the figures for the Activity in test [5] and in test [6] were 1.41 and 2.45, respectively.

As to `C[C@H](NC(=O)CNC(=O)[C@@H](NC(=O)[C@H](Cc1ccccc1)NC(=O)CNC(=O)CNC(=O)[C@@H](N)Cc1ccccc1)[C@@H](C)O)C(=O)N[C@@H](CCCNC(=N)N)C(=O)N[C@@H](CCCCN)C(=O)N[C@@H](CO)C(=O)N[C@@H](C)C(=O)N[C@@H](CCCNC(=N)N)C(=O)N[C@@H](CCCCN)C(N)=O`, the Emax in test [1] is -49%; in test [3], -46%. Also, the Activity in test [5] and in test [6] was 1 throughout.
